# Measurements: paper PMC11352273, “The Proapoptotic Action of Pyrrolidinedione–Thiazolidinone Hybrids towards Human Breast Carcinoma Cells Does Not Depend on Their Genotype” (Cancers, 2024)
# Assays:
# [1] = test system: normal human keratinocytes (HaCaT); set-up: method as in PMID 37579525; details: cited from earlier work
# [2] = test system: caspase 9 in MDA-MB-231 cells; test: Caspase-9 activity, FAM-FLICA flow cytometry; type: cell-based, human; details: MDA-MB-231, 24 h
# Method: (§3) The assay was performed following the manufacturer’s instructions and the previously described methodology [25]. […] The cells were gathered, rinsed twice with chilled PBS, and reconstituted in an Apoptosis Wash Buffer. Then, 10 µL of freshly diluted FLICA solution was added to 290 µL of cell suspension and incubated for an hour at 37 °C. Following two rounds of washing with 2 mL of Apoptosis Wash Buffer, the cells were centrifuged, resuspended in 300 µL of the buffer, and then analyzed [25].
# [3] = test system: Beclin-1 in MDA-MB-231 cells; test: Beclin-1 ELISA in cell lysates; type: cell-based, human; details: MDA-MB-231, 24 h, 2 μM; untreated control 11.79 ng/mL
# Method: (§1) In order to determine the Beclin-1 concentration in the cell lysates, the SimpleStep ELISA (Abcam, Cambridge, UK) Kit was used. MMP-2, MMP-9, and ICAM-1 concentrations were measured in culture supernatants using high-sensitivity human SimpleStep ELISA kits (Abcam, Cambridge, UK) according to the manufacturer’s protocols. The LC3B ELISA kit (BT LAB, Shanghai, China) was used to check the protein concentration in cell lysates from analyzed breast cancer cells. The procedure for preparing the samples was shown previously.
# Beclin-1 in MCF-7 cells = test: Beclin-1 ELISA in cell lysates; type: cell-based, human; details: MCF-7, 24 h, 2 μM; untreated control 4.08 ng/mL
# Method: as §1
# [4] = test system: caspase 8 in MDA-MB-231 cells; test: Caspase-8 activity, FAM-FLICA flow cytometry; type: cell-based, human; details: MDA-MB-231, 24 h
# Method: as §3
# [5] = test system: MDA-MB-231, 4T1, MCF-7, T-47D, and HCC1954 cells; test: MTT assay, summary over breast carcinoma cell lines; type: cell-based
# Method: The MCF-7 and MDA-MB-231 cells were cultured in the DMEM medium containing 10% of the FBS, HCC1954, T-47D, and 4T1 cells in the RPMI-1640 medium with the addition of 10% of the FBS, and MCF-10A cells in MEGM Mammary Epithelial Cell Growth Medium BulletKit supplemented with penicillin/streptomycin cocktail and 5% of horse serum. The cells were cultured in a […] atmosphere at 5% CO2 and 37 °C. After trypsinization, cells were counted using a Scepter 3.0 handheld automated cell counter (Millipore, Burlington, MA, USA).
# The MTT test was used to assess the metabolic activity of cells treated with the investigated substances following the Sigma-Aldrich manufacturer’s instructions. Briefly, compounds were added in 100 µL of the cultural medium, and cells were incubated for the next 24 and 48 h. Doxorubicin was used as a reference drug. The DMSO was added to dissolve the crystals of formazan. We used the ThermoScientific Evolution 201 UV–VIS spectrophotometer (ThermoFisher Scientific, Waltham, MA, USA) to measure the absorbance of formazan at 570 nm. The initial value of the relative number of cells in control (under 0.1% of the DMSO) was accepted as 100%. We used GraphPad Prism Version 9 to calculate the half-maximal inhibition concentration (IC50) of the studied compounds (the concentration of the drug that reduced cell viability by 50%).
# [6] = test system: caspase 10 in MCF-7 cells; test: Caspase-10 activity, FAM-FLICA flow cytometry; type: cell-based, human; details: MCF-7, 24 h
# [7] = test system: MCF-7, MDA-MB-231, and HCC1954 cell lines; test: [3H]-thymidine incorporation assay, summary over cancer cell lines; type: cell-based; details: Homo sapiens; 24 h, MCF-7, MDA-MB-231, HCC1954; read-out: IC50 of DNA synthesis inhibition, range over cell lines
# Method: Following a 24 h cell treatment, the incorporation of [^3H]-thymidine into the DNA of the breast tumor and normal cells was used to measure the antiproliferative activity of Les-6287. The MCF-7, MDA-MB-231, HCC1954, and MCF-10A cells were seeded into six-well plates (density 3 × 10^5 cells/well) and cultured for 24 h. Then, they were incubated under the same conditions for the next 24 h with a growth medium containing the tested compounds and reference drug (doxorubicin) at different concentrations (1, 2.5, 5, 10, 50 µM). After 24 h, the medium was changed to a fresh one without FBS. A total of 0.5 µCi of tritium-labeled thymidine (specific activity: 7 Ci/mmol) was added to cells for 4 h. The cells were washed with 1 mL of 0.05 M Tris-HCl buffer pH 7.4 containing 0.11 M NaCl and 1 mL of 5% trichloroacetic acid (TCA). Each well was filled with 1 mL of a 0.1 M NaOH solution containing 1% SDS to complete cell lysis. After 5 min, the acquired cell lysates were put into scintillation vials and pre-filled with two milliliters of scintillation liquid. The Scintillation Counter 1900 TR, TRI-CARB (Packard, Perkin Elmer, Inc., San Jose, CA, USA) was used to record the results. The effect of compounds on DNA synthesis was expressed as % of the control (non-treated cells).
# LC3B in MCF-7 cells = test: LC3B ELISA in cell lysates; type: cell-based, human; details: MCF-7, 24 h, compound concentration not stated; control 574.84 ng/mL
# Method: as §1
# LC3B in MDA-MB-231 cells = test: LC3B ELISA in cell lysates; type: cell-based, human; details: MDA-MB-231, 24 h, 2 μM; control 698.25 ng/mL
# Method: as §1
# MDA-MB-231 cells = test: JC-1 mitochondrial membrane potential flow cytometry; type: cell-based, human; details: MDA-MB-231, 24 h
# Method: (§2) The JC-1 MitoScreen kit (BD Pharmigen, San Diego, CA, USA) and a flow cytometer (BD FACSCanto II) were used to detect the decrease in mitochondrial membrane potential (MMP, ΔΨm) under the action of the studied compounds. […] Following washing, the cells were further suspended in 0.5 mL of buffer with 10 µg/mL JC-1 and incubated for 15 min at room temperature in the dark. Then, cells were washed twice with buffer, resuspended in 300 µL PBS, and analyzed.
# MCF-7 cells = test: as above; type: cell-based, human; details: MCF-7, 24 h
# Method: as §2
# [8] = test system: caspase 10 in MDA-MB-231 cells; test: Caspase-10 activity, FAM-FLICA flow cytometry; type: cell-based, human; details: MDA-MB-231, 24 h
# caspase 9 in MCF-7 cells = test: Caspase-9 activity, FAM-FLICA flow cytometry; type: cell-based, human; details: MCF-7, 24 h
# Method: as §3
# [9] = test system: mitogen-activated lymphocytes collected from the peripheral blood of a healthy donor; set-up: method as in PMID 37579525; details: cited from earlier work
# [10] = test system: caspase 3/7 in MDA-MB-231 cells; test: Caspase-3/7 activity, FAM-FLICA flow cytometry; details: MDA-MB-231, 24 h
# Method: as §3
compound,measurement,setting,value
"O=C1CC(N2C(=O)C(=CC(Cl)=Cc3ccc([N+](=O)[O-])cc3)SC2=S)C(=O)N1c1ccc(O)cc1 (stereo not shown) [Les-6287, 1-(4-hydroxyphenyl)-3-[5-[2-chloro-3-(4-nitrophenyl)prop-2-enylidene]-4-oxo-2-thioxothiazolidine-3-yl]pyrrolidine-2,5-dione]",IC50,[1],> 73.6 µM
same,cells with active caspase 9,[2]; 1 µM,15.30 ± 0.80%
same,cells with active caspase 9,[2]; 1.5 µM,21.88 ± 2.00%
same,concentration of Beclin-1,[3],9.83 ng/mL
same,concentration of Beclin-1,Beclin-1 in MCF-7 cells,2.78 ng/mL
same,cells with active caspase 8,[4]; 1 µM,18.23 ± 0.62%
same,cells with active caspase 8,[4]; 1.5 µM,23.50 ± 1.03%
same,IC50,"[5]; Breast carcinoma cell, 24 and 48 h, all five cancer cell lines and all three hybrids together, read-out: IC50, range over breast carcinoma cell lines",1.37 to 21.9 µM
same,selectivity index (SI = IC50 for MCF-10A/IC50 for human breast tumor cells),[5]; range over cell lines and time points,24.10–47.13
same,cells with active caspase 10,[6]; 1 µM,11.58 ± 2.30%
same,cells with active caspase 10,[6]; 1.5 µM,20.50 ± 1.49%
same,IC50,[7],2.32 to 3.67 µM
same,concentration of LC3B,LC3B in MCF-7 cells,537.74 ng/mL
same,concentration of LC3B,LC3B in MDA-MB-231 cells,483.50 ng/mL
same,cells with decreased mitochondrial membrane potential (ΔΨm),MDA-MB-231 cells; 1 µM,3.75 ± 1.34%
same,cells with decreased mitochondrial membrane potential (ΔΨm),MDA-MB-231 cells; 1.5 µM,17.85 ± 3.46%
same,cells with decreased mitochondrial membrane potential (ΔΨm),MCF-7 cells; 1 µM,21.00 ± 1.20%
same,cells with decreased mitochondrial membrane potential (ΔΨm),MCF-7 cells; 1.5 µM,38.85 ± 3.46%
same,cells with active caspase 10,[8]; 1 µM,14.48 ± 2.53%
same,cells with active caspase 10,[8]; 1.5 µM,19.78 ± 0.80%
same,cells with active caspase 9,caspase 9 in MCF-7 cells; 1 µM,24.40 ± 0.98%
same,cells with active caspase 9,caspase 9 in MCF-7 cells; 1.5 µM,36.45 ± 1.05%
same,IC50,[9],29 to 67 µM
same,cells with active caspase 3/7,[10]; 1 µM,17.20 ± 1.58%
same,cells with active caspase 3/7,[10]; 1.5 µM,26.63 ± 8.32%
